Test results: US11547767B2, “99mTc-EDDA/HYNIC-iPSMA as a radiopharmaceutical for detecting the overexpression of prostate-specific membrane antigen” (INSTITUTO NACIONAL DE INVESTIGACIONES NUCLEARES, priority 2016, dated 2023)

Assays:
[1] = target: T1, PSMA protein (LNCaP cells) (Homo sapiens, UniProt Q04609); assay: affinity by studies of competence in PSMA-positive cancer cells (LNCaP); assay type: binding; conditions: competition in LNCaP cells
T1 construct: endogenous in cells; host or cells: LNCaP
T1 sequence (Q04609 whole entry): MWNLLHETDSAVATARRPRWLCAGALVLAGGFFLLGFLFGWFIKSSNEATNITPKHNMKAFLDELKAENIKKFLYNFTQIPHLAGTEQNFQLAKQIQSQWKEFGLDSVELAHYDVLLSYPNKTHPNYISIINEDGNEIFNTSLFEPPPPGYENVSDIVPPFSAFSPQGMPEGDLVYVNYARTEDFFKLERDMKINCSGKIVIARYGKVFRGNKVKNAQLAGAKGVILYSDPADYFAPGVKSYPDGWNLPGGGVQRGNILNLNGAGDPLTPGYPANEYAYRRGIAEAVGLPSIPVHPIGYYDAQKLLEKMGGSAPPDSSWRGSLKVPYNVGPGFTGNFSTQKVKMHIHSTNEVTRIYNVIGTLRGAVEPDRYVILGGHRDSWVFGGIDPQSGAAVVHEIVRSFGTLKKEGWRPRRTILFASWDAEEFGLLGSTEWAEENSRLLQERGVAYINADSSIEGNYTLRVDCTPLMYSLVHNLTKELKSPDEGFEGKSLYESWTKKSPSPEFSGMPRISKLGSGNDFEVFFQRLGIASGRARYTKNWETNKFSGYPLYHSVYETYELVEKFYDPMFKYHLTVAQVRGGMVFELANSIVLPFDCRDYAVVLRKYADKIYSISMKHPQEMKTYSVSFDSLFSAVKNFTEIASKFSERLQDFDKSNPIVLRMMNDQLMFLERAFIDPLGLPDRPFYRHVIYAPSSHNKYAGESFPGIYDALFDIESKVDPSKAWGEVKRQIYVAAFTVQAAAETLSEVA

[2] = system: balb-C laboratory mice; assay: toxicity in balb-C laboratory mice; assay type: in vivo; conditions: dose of 40 mg/kg
Text: (§1) This image confirms, and is the main evidence, that because of its increased properties of affinity owing to the lipophilicity of the incorporated HYNIC molecule, ^99mTc-EDDA/HYNIC-iPSMA is able to equal the high imaging sensitivity of the PET radionuclides in the detection of tumoral lesions that overexpress PSMA.

[3] = target: T2, PSMA overexpressed in prostate cancer cells (Homo sapiens, UniProt Q04609); assay: SPECT/PET imaging in patients with prostate cancer; assay type: in vivo; conditions: for detection of tumors and metastases (PET and SPECT image, FIG. 6): same patient with advanced metastatic prostate cancer given both radiopharmaceuticals
T2 construct: detect in vivo PSMA overexpressed in prostate cancer cells; from tissue; host or cells: tumours and metastases in prostate cancer patients (in vivo SPECT/PET)
T2 sequence (Q04609 whole entry): as above
Text: as §1

[4] = human, in vivo
Text: as §1

[5] = system: LNCaP tumors; parameters: species or system mice; conditions: mouse, in vivo
Text: as §1

[6] = assay type: physicochemical
Protocol: HYNIC-iPSMA (37.5 μg) was formulated as a lyophilized dosage form containing 10 mg of EDDA, 20 mg of tricine, 20 μg of stannous chloride and 50 mg of mannitol. This formulation, on being reconstituted with 1 mL of 0.2 M phosphate buffer solution, pH 7 and 1 mL of solution of sodium pertechnetate (^99mTcO4Na), obtained in situ from a generator of ^99Mo/^99mTc, produces the compound to be patented ^99mTc-EDDA/HYNIC-iPSMA (FIG. 1) with radiochemical purity greater than 98% determined by reverse-phase HPLC, which has the corresponding radiochromatogram (FIG. 3).
(§2) The radiopharmaceutical remains stable with radiochemical purity greater than 95%, 24 h after labeling. In-vitro tests of stability in human serum show binding to serum proteins of 8.3±2.1% and high radiochemical stability (>90%).

[7] = assay type: in vitro ADME, human
Protocol: as §2

| Compound | IC50 [1] [nM] | toxicity or adverse effects [2] | ability to detect in vivo overexpressed PSMA (SPECT image, FIG. 5) ([3]; patient with prostate cancer) | detection of tumors and metastases (PET and SPECT image, FIG. 6) [3] | biokinetics (clearance and organ capture) [4] | mean effective dose [4] [mSv] | capture in the tumors [5] [% ID/g] | route of elimination [5] | radiochemical purity 24 h after labeling (stability) [6] | radiochemical stability in human serum [7] [%] |
| --- | --- | --- | --- | --- | --- | --- | --- | --- | --- | --- |
| NNc1ccc(C(=O)N[C@@H](Cc2ccc3ccccc3c2)C(=O)NCCCC[C@H](NC(=O)N[C@@H](CCC(=O)O)C(=O)O)C(=O)O)cn1 [HYNIC-iPSMA, Glu-NH—CO—NH-Lys(β-naphthyl alanine)-HYNIC] | 2.9 ± 0.7 | did not display toxicity or adverse effects | – | – | – | – | – | – | – | – |
| 99mTc-ethylenediaminediacetic acid/hydrazinonicotinamide-inhibitor of prostate-specific membrane antigen [99mTc-EDDA/HYNIC-iPSMA] | – | – | confirming the ability of the radiopharmaceutical to detect in vivo PSMA overexpressed in prostate cancer cells | detect tumors and metastases of prostate cancer with high sensitivity | rapid clearance from the blood with greater capture and renal excretion, lower hepatic capture and high capture in the parathyroid, salivary and lacrimal glands | 4±2 | 8.7±1.3 | mainly with elimination by the renal route | greater than 95% | > 90 |
| O=C([O-])CN1CCN(CC(=O)[O-])CCN(CC(=O)NC[C@H]2CC[C@H](C(=O)N[C@@H](Cc3ccc4ccccc4c3)C(=O)NCCCC[C@H](NC(=O)N[C@@H](CCC(=O)O)C(=O)O)C(=O)O)CC2)CCN(CC(=O)[O-])CC1.[68Ga+3] [68Ga-PSMA-617, reference compound] | – | – | – | detect tumors and metastases of prostate cancer with high sensitivity | – | – | – | – | – | – |
